Experimental data reported in patent US8192962B2, “Processes for detecting toxic substances” (Daikin Industries, Ltd., priority 2001, dated 2012).

Test system: Unknown protein yeast genes
Assay: DNA chip mRNA expression in yeast, unknown protein yeast genes (Table 1)
Assay type: cell-based, Saccharomyces cerevisiae S288C
Procedure, shortened: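 Value is the scanned fluorescence intensity ratio of exposed versus chemical-free cells. Log-phase S288C yeast in YPD at 25° C. received one toxic substance for two hours, dosed to slow growth without killing; Cy3/Cy5-labeled cDNA from oligo-dT-purified mRNA was hybridized to a whole-genome chip at 65° C.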

With `C=CC=O` [(14), acrolein] the “The level of expressed mRNA in the presence of chemical substance/The level of expressed mRNA in the absence of chemical substance” value (yeast gene YAL053W, incubated two hours with chemical substance) was 0.7, the “The level of expressed mRNA in the presence of chemical substance/The level of expressed mRNA in the absence of chemical substance” value (yeast gene YBL048W) was 2.0 and the “The level of expressed mRNA in the presence of chemical substance/The level of expressed mRNA in the absence of chemical substance” value (yeast gene YBL107C) was 2.5. The “The level of expressed mRNA in the presence of chemical substance/The level of expressed mRNA in the absence of chemical substance” value (yeast gene YDL072C, incubated two hours with chemical substance) was 1.8, the “The level of expressed mRNA in the presence of chemical substance/The level of expressed mRNA in the absence of chemical substance” value (yeast gene YDL204W, incubated two hours with chemical substance) was 2.4 and the “The level of expressed mRNA in the presence of chemical substance/The level of expressed mRNA in the absence of chemical substance” value (yeast gene YDL222C, incubated two hours with chemical substance) was 1.3. For the same compound, the “The level of expressed mRNA in the presence of chemical substance/The level of expressed mRNA in the absence of chemical substance” value (yeast gene YDR330W, incubated two hours with chemical substance) was 1.1, the “The level of expressed mRNA in the presence of chemical substance/The level of expressed mRNA in the absence of chemical substance” value (yeast gene YDR411C, incubated two hours with chemical substance) was 0.8 and the “The level of expressed mRNA in the presence of chemical substance/The level of expressed mRNA in the absence of chemical substance” value (yeast gene YDR511W, incubated two hours with chemical substance) was 2.2. For the same compound, the “The level of expressed mRNA in the presence of chemical substance/The level of expressed mRNA in the absence of chemical substance” value (yeast gene YDR545W, incubated two hours with chemical substance) was 0.7, the “The level of expressed mRNA in the presence of chemical substance/The level of expressed mRNA in the absence of chemical substance” value (yeast gene YEL001C, incubated two hours with chemical substance) was 1.3 and the “The level of expressed mRNA in the presence of chemical substance/The level of expressed mRNA in the absence of chemical substance” value (yeast gene YER004W, incubated two hours with chemical substance) was 1.8. The “The level of expressed mRNA in the presence of chemical substance/The level of expressed mRNA in the absence of chemical substance” value (yeast gene YER035W, incubated two hours with chemical substance) was 1.0, the “The level of expressed mRNA in the presence of chemical substance/The level of expressed mRNA in the absence of chemical substance” value (yeast gene YER079W, incubated two hours with chemical substance) was 1.6 and the “The level of expressed mRNA in the presence of chemical substance/The level of expressed mRNA in the absence of chemical substance” value (yeast gene YER106W, incubated two hours with chemical substance) was 1.5. The “The level of expressed mRNA in the presence of chemical substance/The level of expressed mRNA in the absence of chemical substance” value (yeast gene YER158C, incubated two hours with chemical substance) was 0.9, the “The level of expressed mRNA in the presence of chemical substance/The level of expressed mRNA in the absence of chemical substance” value (yeast gene YER163C, incubated two hours with chemical substance) was 1.9 and the “The level of expressed mRNA in the presence of chemical substance/The level of expressed mRNA in the absence of chemical substance” value (yeast gene YER175C, incubated two hours with chemical substance) was 1.1. For the same compound, the “The level of expressed mRNA in the presence of chemical substance/The level of expressed mRNA in the absence of chemical substance” value (yeast gene YFL006W, incubated two hours with chemical substance) was 1.7, the “The level of expressed mRNA in the presence of chemical substance/The level of expressed mRNA in the absence of chemical substance” value (yeast gene YFL010C, incubated two hours with chemical substance) was 1.4 and the “The level of expressed mRNA in the presence of chemical substance/The level of expressed mRNA in the absence of chemical substance” value (yeast gene YFL024C) was 3.3. The “The level of expressed mRNA in the presence of chemical substance/The level of expressed mRNA in the absence of chemical substance” value (yeast gene YFL032W, incubated two hours with chemical substance) was 0.6, the “The level of expressed mRNA in the presence of chemical substance/The level of expressed mRNA in the absence of chemical substance” value (yeast gene YGL037C, incubated two hours with chemical substance) was 1.0 and the “The level of expressed mRNA in the presence of chemical substance/The level of expressed mRNA in the absence of chemical substance” value (yeast gene YGL047W, incubated two hours with chemical substance) was 2.3. For the same compound, the “The level of expressed mRNA in the presence of chemical substance/The level of expressed mRNA in the absence of chemical substance” value (yeast gene YGL053W, incubated two hours with chemical substance) was 1.1, the “The level of expressed mRNA in the presence of chemical substance/The level of expressed mRNA in the absence of chemical substance” value (yeast gene YGL121C) was 5.8 and the “The level of expressed mRNA in the presence of chemical substance/The level of expressed mRNA in the absence of chemical substance” value (yeast gene YGL199C, incubated two hours with chemical substance) was 0.8. For the same compound, the “The level of expressed mRNA in the presence of chemical substance/The level of expressed mRNA in the absence of chemical substance” value (yeast gene YGR101W, incubated two hours with chemical substance) was 0.9, the “The level of expressed mRNA in the presence of chemical substance/The level of expressed mRNA in the absence of chemical substance” value (yeast gene YGR110W) was 2.8 and the “The level of expressed mRNA in the presence of chemical substance/The level of expressed mRNA in the absence of chemical substance” value (yeast gene YGR130C, incubated two hours with chemical substance) was 0.9. The “The level of expressed mRNA in the presence of chemical substance/The level of expressed mRNA in the absence of chemical substance” value (yeast gene YGR154C, incubated two hours with chemical substance) was 2.2, the “The level of expressed mRNA in the presence of chemical substance/The level of expressed mRNA in the absence of chemical substance” value (yeast gene YGR221C, incubated two hours with chemical substance) was 1.4 and the “The level of expressed mRNA in the presence of chemical substance/The level of expressed mRNA in the absence of chemical substance” value (yeast gene YHR138C, incubated two hours with chemical substance) was 3.4. For the same compound, the “The level of expressed mRNA in the presence of chemical substance/The level of expressed mRNA in the absence of chemical substance” value (yeast gene YHR199C, incubated two hours with chemical substance) was 2.0, the “The level of expressed mRNA in the presence of chemical substance/The level of expressed mRNA in the absence of chemical substance” value (yeast gene YIL023C, incubated two hours with chemical substance) was 0.7 and the “The level of expressed mRNA in the presence of chemical substance/The level of expressed mRNA in the absence of chemical substance” value (yeast gene YIL041W, incubated two hours with chemical substance) was 1.3. For the same compound, the “The level of expressed mRNA in the presence of chemical substance/The level of expressed mRNA in the absence of chemical substance” value (yeast gene YIL087C, incubated two hours with chemical substance) was 1.3, the “The level of expressed mRNA in the presence of chemical substance/The level of expressed mRNA in the absence of chemical substance” value (yeast gene YJL057C, incubated two hours with chemical substance) was 1.6 and the “The level of expressed mRNA in the presence of chemical substance/The level of expressed mRNA in the absence of chemical substance” value (yeast gene YJL066C, incubated two hours with chemical substance) was 1.0. For the same compound, the “The level of expressed mRNA in the presence of chemical substance/The level of expressed mRNA in the absence of chemical substance” value (yeast gene YJL082W, incubated two hours with chemical substance) was 0.5, the “The level of expressed mRNA in the presence of chemical substance/The level of expressed mRNA in the absence of chemical substance” value (yeast gene YJL151C, incubated two hours with chemical substance) was 1.3 and the “The level of expressed mRNA in the presence of chemical substance/The level of expressed mRNA in the absence of chemical substance” value (yeast gene YJL152W, incubated two hours with chemical substance) was 1.4. The “The level of expressed mRNA in the presence of chemical substance/The level of expressed mRNA in the absence of chemical substance” value (yeast gene YJL161W, incubated two hours with chemical substance) was 2.2, the “The level of expressed mRNA in the presence of chemical substance/The level of expressed mRNA in the absence of chemical substance” value (yeast gene YJL171C, incubated two hours with chemical substance) was 1.0 and the “The level of expressed mRNA in the presence of chemical substance/The level of expressed mRNA in the absence of chemical substance” value (yeast gene YJR008W, incubated two hours with chemical substance) was 1.2. The “The level of expressed mRNA in the presence of chemical substance/The level of expressed mRNA in the absence of chemical substance” value (yeast gene YJR054W, incubated two hours with chemical substance) was 1.2, the “The level of expressed mRNA in the presence of chemical substance/The level of expressed mRNA in the absence of chemical substance” value (yeast gene YKL071W) was 21.9 and the “The level of expressed mRNA in the presence of chemical substance/The level of expressed mRNA in the absence of chemical substance” value (yeast gene YKL086W, incubated two hours with chemical substance) was 2.9. For the same compound, the “The level of expressed mRNA in the presence of chemical substance/The level of expressed mRNA in the absence of chemical substance” value (yeast gene YKL107W) was 3.4, the “The level of expressed mRNA in the presence of chemical substance/The level of expressed mRNA in the absence of chemical substance” value (yeast gene YKL151C, incubated two hours with chemical substance) was 1.3 and the “The level of expressed mRNA in the presence of chemical substance/The level of expressed mRNA in the absence of chemical substance” value (yeast gene YKL153W, incubated two hours with chemical substance) was 1.1.
